Ends that are not written are not given here. Where only a bound is given, the exact number is not on record here.

Here are results for 44 sequences from publication PMC2565697, “HLA Class I-T Cell Epitopes from trans-Sialidase Proteins Reveal Functionally Distinct Subsets of CD8^+ T Cells in Chronic Chagas Disease” (PLoS Neglected Tropical Diseases, 2008).

The target of one assay is HLA-A2.1 molecule (Homo sapiens, UniProt P04439, D140Y/D185E/D98H/E176V/E277Q/G131W/G231S/I119V/I121R/I166T/I218V/L300P/L318F/N151K/N90K/P208A/P217A/Q86G/Q94H/R138H/R169H/T345S). Description: HLA-A class I binding assay (competitive inhibition of radiolabeled probe peptide). The settings on record: competitive inhibition of binding of radiolabeled standard probe peptide to purified detergent-solubilized HLA-A2.1.
One may read the IC50 as the concentration that inhibits the measured activity by half. Read a high IC50 as weaker potency. Take ELLRPTTLV [Ts 52]: the IC50 came out at 2.41 µM. Regarding FANHDFTLV [Ts 34], the IC50 was 0.101 µM. With FANHKFTLV [Ts 38], the IC50 is 0.148 µM. Sequence FANNKFTLV [Ts 43] came in with an IC50 of 0.116 µM. In turn, FANYKFTLV [Ts 44] had an IC50 of 0.049 µM. On to FANYNFTLL [Ts 51], for which the IC50 worked out at 1.5 µM.

For the sequence FANYNFTLV [Ts 48], the IC50 worked out at 0.00047 µM. In turn, FLSHDFTLV [Ts 24] returned an IC50 of 0.00046 µM. The same measure, in the same setting: the result for FLSHNFTLVF [Ts 27] reads 0.00061 µM. The same measure, in the same setting: the result for FTNNKFTLS [Ts 68] reads > 50 µM. On to FVDYNFSLV [Ts 47], for which the IC50 came out at 0.0011 µM.

In turn, FVNHRFTLV [Ts 37] returned an IC50 of 0.304 µM.

With FVNYNFTLV [Ts 45], the IC50 was 0.00025 µM.

In the case of FVSCDFTIV [Ts 35], the IC50 is 0.03 µM. Same read-out and setting: the result for GLLPSLLLLL [Ts 3] reads 0.0031 µM; that for IANYNFTLV [Ts 56], 29.6 µM. Regarding LLGLWGLATA [Ts 6], the IC50 stood at 0.024 µM. Turning to LLGLWGTAAL [Ts 13], the concentration for half-maximal inhibition (IC50) was determined as 0.499 µM.

Take LLGLWVFAAL [Ts 2]: the IC50 is 0.036 µM. The same measure, in the same setting: the result for RLLPSLLLLL [Ts 4] reads 0.0008 µM; that for RVSRPTTVV [Ts 58], 2.49 µM. As to SLSHYFTLVF [Ts 26], the IC50 was found to be 0.0016 µM.

The next assay has as its system PBMC from chronic Chagas disease subjects. Kind of assay: IFN-γ ELISPOT with supertype peptide pools, single peptides or lysate in non-HLA-typed G0 subjects. The class given is cell-based, human. To be noted: single peptides 10 µg/ml, representative results from single individuals, media alone subtracted (media alone 13±10). Here is the method: The number of peptide-specific IFN-γ and IL-2-secreting T cells was determined by ex vivo ELISPOT using commercial kits (Becton & Dickinson, San Diego, CA). Cryopreserved PBMC from chronic chagasic subjects were seeded in triplicate wells at a concentration of 4×10^5/well, and stimulated with individual peptides (10 µg/ml), peptide pools (7–13 peptides per pool, 5 µg/ml/peptide) comprising HLA A01 (2 pools), A02 (2 pools), A03 (2 pools), A24 (2 pools), B07 (1 pool) or B44 (1 pool)-binding peptides or T. cruzi lysate (10 µg/ml) for 16–20 hr at 37°C and 5% CO2. For controls, cells were incubated with complete RPMI, A2-restricted HIV Pol (amino acids 510–518: […]), A2-restricted flu matrix 1 (amino acids 58–66: […]) or 50 ng/ml […] and 500 nM ionomicin (Sigma). Spot forming cells (SFCs) were automatically enumerated using ImmunoSpot analyzer (CTL).
The mean number of SFCs in triplicate wells was obtained for each condition, and the number of specific IFN-γ and IL-2-secreting T cells (net SFCs), was calculated by subtracting the value of the wells containing media alone from the peptide/mitogen-stimulated spot count. Responses were considered significant if a minimum of 25 SFCs/1×10^6 PBMC were present per well, and additionally, this number was at least twice the value of wells with media alone.
The number of annotated T. cruzi genes containing supertype-binding epitopes was then used to prioritize peptides to be assessed for recognition by CD8^+ T cells from a group of non-HLA-typed chagasic subjects (Table 2). IFN-γ ELISPOT responses to peptide pools containing a total of ninety-six epitopes representing HLA A01 (18 epitopes), HLA A02 (20 epitopes), HLA A03 (20 epitopes), HLA A24 (14 epitopes), HLA B07 (11 epitopes) and HLA-B44 (13 epitopes) supertypes were evaluated in 25 chronic Chagas disease subjects without clinical and radiological evidence of heart disease (G0 status) regardless of their HLA type. […] Four subjects had positive responses to more than one supertype (3 of these subjects recognized both HLA-A02 and HLA-A03-binding peptides, Fig. 1). It is noteworthy that responses to HLA-A02 and HLA03 supertype-restricted epitopes covered 77% of the total responses detected, consistent with the high worldwide frequency of these alleles.
On to AVAEAQCKK, for which the “No. Net IFN-γ SFCs/10^6 PBMC” value was 18 SFCs/10^6 PBMC. On to FLYNRPLNS, for which the “No. Net IFN-γ SFCs/10^6 PBMC” value turned out to be 18 SFCs/10^6 PBMC. Turning to FQGAWAEWPV, the “No. Net IFN-γ SFCs/10^6 PBMC” value was 32 SFCs/10^6 PBMC.

Take FTLVASVTI: the “No. Net IFN-γ SFCs/10^6 PBMC” value was found to be 35 SFCs/10^6 PBMC. Turning to FTLVATVSI, the “No. Net IFN-γ SFCs/10^6 PBMC” value is 70 SFCs/10^6 PBMC. With FTSAVLLLL, the “No. Net IFN-γ SFCs/10^6 PBMC” value is recorded as 25 SFCs/10^6 PBMC. As for FVSPSLVSA, the “No. Net IFN-γ SFCs/10^6 PBMC” value is given as 18 SFCs/10^6 PBMC. Consider HLFYSAVLL, for which the “No. Net IFN-γ SFCs/10^6 PBMC” value was 40 SFCs/10^6 PBMC.

Turning to HNFTLVASV, the “No. Net IFN-γ SFCs/10^6 PBMC” value came out at 15 SFCs/10^6 PBMC. Take ITATIEGRK: the “No. Net IFN-γ SFCs/10^6 PBMC” value stood at 50 SFCs/10^6 PBMC. Take IYMLVGKYS: the “No. Net IFN-γ SFCs/10^6 PBMC” value is reported as 65 SFCs/10^6 PBMC. For the sequence LLLGLWGFA, the “No. Net IFN-γ SFCs/10^6 PBMC” value was 30 SFCs/10^6 PBMC. LLLLVVMMCC: the “No. Net IFN-γ SFCs/10^6 PBMC” value stood at 18 SFCs/10^6 PBMC. Still for that read-out and setting: the result for LVTLPVYSK reads 15 SFCs/10^6 PBMC; that for LWLTDNTHI, 463 SFCs/10^6 PBMC. Take MLSRVAAVK: the “No. Net IFN-γ SFCs/10^6 PBMC” value is recorded as 38 SFCs/10^6 PBMC.

In the case of MLVTLPVYS, the “No. Net IFN-γ SFCs/10^6 PBMC” value amounted to 15 SFCs/10^6 PBMC. For NVMLVTLPV, the “No. Net IFN-γ SFCs/10^6 PBMC” value was 18 SFCs/10^6 PBMC. Take RVLLLLLLGL: the “No. Net IFN-γ SFCs/10^6 PBMC” value is given as 20 SFCs/10^6 PBMC.

Consider TSAVLLLLVV, for which the “No. Net IFN-γ SFCs/10^6 PBMC” value stood at 18 SFCs/10^6 PBMC.

Consider VALMLQGNK, for which the “No. Net IFN-γ SFCs/10^6 PBMC” value is 18 SFCs/10^6 PBMC.

Regarding VTDNNRSFY, the “No. Net IFN-γ SFCs/10^6 PBMC” value is 30 SFCs/10^6 PBMC.

For another assay, the system named is PBMC from HLA-A2.1+ patients with chronic Chagas disease. Description: IFN-γ ELISPOT with individual HLA-A0201-binding ts peptides in HLA-A2.1+ subjects. The class given is cell-based, human. To be noted: HLA-A2.1+ patients group G0, peptide 10 µg/ml, 4×10^5 PBMC/well, 16–20 hr, positive: >=25 SFCs/10^6 PBMC and at least twice media alone.
In the case of FTNNKFTLS [Ts 68], the “No. of positive responders/total no. of subjects assayed (%), G0” value is 0/6.

Still in this assay, the particulars now being: HLA-A2.1+ patients group G1, peptide 10 µg/ml, 16–20 hr.
Turning to FTNNKFTLS [Ts 68], the “No. of positive responders/total no. of subjects assayed (%), G1” value is recorded as 0/5.

The same assay, now with this note: HLA-A2.1+ patients group G2/G3, peptide 10 µg/ml, 16–20 hr.
On to FTNNKFTLS [Ts 68], for which the “No. of positive responders/total no. of subjects assayed (%), G2/G3” value is on record as 0/8.
